# Values of other authors in PMC10323144, “Garbage in, garbage out: how reliable training data improved a virtual screening approach against SARS-CoV-2 MPro” (Frontiers in Pharmacology, 2023).
# Counter-ions that a name gives are not always drawn.
# Test system: MPro
# Settings: compiled from peer-reviewed sources (287 compounds) ref the 18 original articles; cited from earlier work
row,Compound,Class (MPro activity class)
1,CN(C)C(=O)c1cc2cnc(Nc3ccc(N4CCNCC4)cn3)nc2n1C1CCCC1 [RIBOCICLIB],"0 (compounds with IC50 > 20 μM, percentage inhibition <80% at 20 µM or 50 μM, or percentage enzyme inhibition <50% at 10 µM were labelled as INACTIVE)"
2,Cc1cc2nc3c(=O)[nH]c(=O)nc-3n(C[C@H](O)[C@H](O)[C@H](O)CO)c2cc1C [RIBOFLAVIN],"0 (compounds with IC50 > 20 μM, percentage inhibition <80% at 20 µM or 50 μM, or percentage enzyme inhibition <50% at 10 µM were labelled as INACTIVE)"
3,CC(C)(C(=O)NCC(F)(F)C(F)(F)F)C(=O)N[C@@H]1C(=O)Nc2ccccc2-c2ccccc21 [RO4929097],"0 (compounds with IC50 > 20 μM, percentage inhibition <80% at 20 µM or 50 μM, or percentage enzyme inhibition <50% at 10 µM were labelled as INACTIVE)"
4,Cc1nnc(C(=O)NC(C)(C)c2nc(C(=O)NCc3ccc(F)cc3)c(O)c(=O)n2C)o1 [Raltegravir],"0 (compounds with IC50 > 20 μM, percentage inhibition <80% at 20 µM or 50 μM, or percentage enzyme inhibition <50% at 10 µM were labelled as INACTIVE)"
5,NC(=O)c1ncn([C@@H]2O[C@H](CO)[C@@H](O)[C@H]2O)n1 [Ribavirin],"0 (compounds with IC50 > 20 μM, percentage inhibition <80% at 20 µM or 50 μM, or percentage enzyme inhibition <50% at 10 µM were labelled as INACTIVE)"
6,NC[C@H]1O[C@H](O[C@H]2[C@H](O[C@@H]3O[C@H](CO)[C@@H](O)[C@H]3O)[C@@H](O)[C@H](N)C[C@@H]2N)[C@H](N)[C@@H](O)[C@@H]1O [Ribostamycin],"0 (compounds with IC50 > 20 μM, percentage inhibition <80% at 20 µM or 50 μM, or percentage enzyme inhibition <50% at 10 µM were labelled as INACTIVE)"
7,CC(C)c1nc(CN(C)C(=O)N[C@H](C(=O)N[C@@H](Cc2ccccc2)C[C@H](O)[C@H](Cc2ccccc2)NC(=O)OCc2cncs2)C(C)C)cs1 [Ritonavir],"0 (compounds with IC50 > 20 μM, percentage inhibition <80% at 20 µM or 50 μM, or percentage enzyme inhibition <50% at 10 µM were labelled as INACTIVE)"
8,CCOC(=O)/C=C/[C@H](C[C@@H]1CCNC1=O)NC(=O)[C@@H](CC(=O)[C@@H](NC(=O)c1cc(C)on1)C(C)C)Cc1ccc(F)cc1 [Rupintrivir],"0 (compounds with IC50 > 20 μM, percentage inhibition <80% at 20 µM or 50 μM, or percentage enzyme inhibition <50% at 10 µM were labelled as INACTIVE)"
9,N#CC[C@H](C1CCCC1)n1cc(-c2ncnc3[nH]ccc23)cn1 [Ruxolitinib],"0 (compounds with IC50 > 20 μM, percentage inhibition <80% at 20 µM or 50 μM, or percentage enzyme inhibition <50% at 10 µM were labelled as INACTIVE)"
10,O=S(=O)(CC1CS1)c1ccc(Oc2ccccc2)cc1 (stereo not shown) [SB-3CT],"0 (compounds with IC50 > 20 μM, percentage inhibition <80% at 20 µM or 50 μM, or percentage enzyme inhibition <50% at 10 µM were labelled as INACTIVE)"
11,CC1(C)CN(C(=O)c2ccc(-c3cccc4nc(NC(=O)C5CC5)nn34)cc2)C1 [SOLCITINIB],"0 (compounds with IC50 > 20 μM, percentage inhibition <80% at 20 µM or 50 μM, or percentage enzyme inhibition <50% at 10 µM were labelled as INACTIVE)"
12,O=C(CCl)N1CCN(Cc2cc(Cl)ccc2CNC(=O)N2CCOCC2)CC1 [STU-CHA-6cae54d3-1],1 (Compounds with IC50 < 10 µM or with a percentage of enzyme inhibition >50% at 10 µM were labelled as ACTIVE)
13,N#C[C@@H]1C[C@@H]2C[C@@H]2N1C(=O)[C@@H](N)C12CC3CC(CC(O)(C3)C1)C2 [Saxagliptin],"0 (compounds with IC50 > 20 μM, percentage inhibition <80% at 20 µM or 50 μM, or percentage enzyme inhibition <50% at 10 µM were labelled as INACTIVE)"
14,O=c1cc(-c2ccc(O)cc2)oc2cc(O)c(O)c(O)c12 [Scutellarein],1 (Compounds with IC50 < 10 µM or with a percentage of enzyme inhibition >50% at 10 µM were labelled as ACTIVE)
15,O=C(O)[C@H]1O[C@@H](Oc2cc3oc(-c4ccc(O)cc4)cc(=O)c3c(O)c2O)[C@H](O)[C@@H](O)[C@@H]1O [Scutellarin],"0 (compounds with IC50 > 20 μM, percentage inhibition <80% at 20 µM or 50 μM, or percentage enzyme inhibition <50% at 10 µM were labelled as INACTIVE)"
16,C=C[C@H]1[C@H](O[C@@H]2O[C@H](CO)[C@@H](O)[C@H](O)[C@H]2O)OC=C(C(=O)OC)[C@H]1CC(=O)O [Secoxyloganin],"0 (compounds with IC50 > 20 μM, percentage inhibition <80% at 20 µM or 50 μM, or percentage enzyme inhibition <50% at 10 µM were labelled as INACTIVE)"
17,CC(C)[C@H](O)C(=O)N[C@@H](C)C(=O)N[C@@H]1C(=O)N(C)CCc2ccccc21 [Semagacestat],"0 (compounds with IC50 > 20 μM, percentage inhibition <80% at 20 µM or 50 μM, or percentage enzyme inhibition <50% at 10 µM were labelled as INACTIVE)"
18,N[C@@H](CC(=O)N1CCn2c(nnc2C(F)(F)F)C1)Cc1cc(F)c(F)cc1F [Sitagliptin],"0 (compounds with IC50 > 20 μM, percentage inhibition <80% at 20 µM or 50 μM, or percentage enzyme inhibition <50% at 10 µM were labelled as INACTIVE)"
19,CC(C)OC(=O)[C@H](C)N[P@](=O)(OC[C@H]1O[C@@H](n2ccc(=O)[nH]c2=O)[C@](C)(F)[C@@H]1O)Oc1ccccc1 [Sofosbuvir],"0 (compounds with IC50 > 20 μM, percentage inhibition <80% at 20 µM or 50 μM, or percentage enzyme inhibition <50% at 10 µM were labelled as INACTIVE)"

row,Compound,Class (MPro activity class)
1,CCc1nc(-c2cccc(C)c2)c(-c2ccnc(NC(=O)c3ccccc3)c2)s1 [TAK-715],"0 (compounds with IC50 > 20 μM, percentage inhibition <80% at 20 µM or 50 μM, or percentage enzyme inhibition <50% at 10 µM were labelled as INACTIVE)"
2,CC/C(=C(\c1ccccc1)c1ccc(OCCN(C)C)cc1)c1ccccc1 [TAMOXIFEN CITRATE],"0 (compounds with IC50 > 20 μM, percentage inhibition <80% at 20 µM or 50 μM, or percentage enzyme inhibition <50% at 10 µM were labelled as INACTIVE)"
3,Nc1nc(N)c2nc(-c3cccc(O)c3)c(-c3cccc(O)c3)nc2n1 [TG100-115],"0 (compounds with IC50 > 20 μM, percentage inhibition <80% at 20 µM or 50 μM, or percentage enzyme inhibition <50% at 10 µM were labelled as INACTIVE)"
4,Cc1ccncc1NC(=O)Cc1cc(Cl)cc(OC2CC(=O)N2)c1 (stereo not shown) [TRY-UNI-2eddb1ff-7],1 (Compounds with IC50 < 10 µM or with a percentage of enzyme inhibition >50% at 10 µM were labelled as ACTIVE)
5,Cc1ccncc1NC(=O)Cc1cccc(Cl)c1 [TRY-UNI-714a760b-6],"0 (compounds with IC50 > 20 μM, percentage inhibition <80% at 20 µM or 50 μM, or percentage enzyme inhibition <50% at 10 µM were labelled as INACTIVE)"
6,Cc1ccncc1NC(=O)Cc1cccc(C#N)c1 [TRY-UNI-714a760b-20],"0 (compounds with IC50 > 20 μM, percentage inhibition <80% at 20 µM or 50 μM, or percentage enzyme inhibition <50% at 10 µM were labelled as INACTIVE)"
7,CCC[C@H](NC(=O)[C@@H]1[C@H]2CCC[C@H]2CN1C(=O)[C@@H](NC(=O)[C@@H](NC(=O)c1cnccn1)C1CCCCC1)C(C)(C)C)C(=O)C(=O)NC1CC1 [Telaprevir],"0 (compounds with IC50 > 20 μM, percentage inhibition <80% at 20 µM or 50 μM, or percentage enzyme inhibition <50% at 10 µM were labelled as INACTIVE)"
8,COc1cnc(-n2cnc(C)n2)c2[nH]cc(C(=O)C(=O)N3CCN(C(=O)c4ccccc4)CC3)c12 [Temsavir],"0 (compounds with IC50 > 20 μM, percentage inhibition <80% at 20 µM or 50 μM, or percentage enzyme inhibition <50% at 10 µM were labelled as INACTIVE)"
9,C[C@H](Cn1cnc2c(N)ncnc21)OCP(=O)(O)O [Tenofovir],"0 (compounds with IC50 > 20 μM, percentage inhibition <80% at 20 µM or 50 μM, or percentage enzyme inhibition <50% at 10 µM were labelled as INACTIVE)"
10,O=c1sn(-c2cccc3ccccc23)c(=O)n1Cc1ccccc1 [Tideglusib],1 (Compounds with IC50 < 10 µM or with a percentage of enzyme inhibition >50% at 10 µM were labelled as ACTIVE)
11,CCC[C@@]1(CCc2ccccc2)CC(O)=C([C@H](CC)c2cccc(NS(=O)(=O)c3ccc(C(F)(F)F)cn3)c2)C(=O)O1 [Tipranavir],"0 (compounds with IC50 > 20 μM, percentage inhibition <80% at 20 µM or 50 μM, or percentage enzyme inhibition <50% at 10 µM were labelled as INACTIVE)"
12,C[C@@H]1CCN(C(=O)CC#N)C[C@@H]1N(C)c1ncnc2[nH]ccc12 [Tofacitinib],"0 (compounds with IC50 > 20 μM, percentage inhibition <80% at 20 µM or 50 μM, or percentage enzyme inhibition <50% at 10 µM were labelled as INACTIVE)"
13,Cn1c(=O)cc(N2CCC[C@@H](N)C2)n(Cc2cc(F)ccc2C#N)c1=O [Trelagliptin],"0 (compounds with IC50 > 20 μM, percentage inhibition <80% at 20 µM or 50 μM, or percentage enzyme inhibition <50% at 10 µM were labelled as INACTIVE)"
14,C[C@]12CC[C@H]3[C@@H](CC[C@@]45O[C@@H]4C(O)=C(C#N)C[C@]35C)[C@@H]1CC[C@@H]2O [Trilostane],"0 (compounds with IC50 > 20 μM, percentage inhibition <80% at 20 µM or 50 μM, or percentage enzyme inhibition <50% at 10 µM were labelled as INACTIVE)"
15,CC(C)CC(NC(=O)OCc1ccccc1)C(=O)NC(CC1CCNC1=O)C(=O)C(=O)NC1CC1 (stereo not shown) [UAWJ246],1 (Compounds with IC50 < 10 µM or with a percentage of enzyme inhibition >50% at 10 µM were labelled as ACTIVE)
16,O=C(NC(Cc1ccccc1)C(=O)NC(CC1CCNC1=O)C(O)S(=O)(=O)O)OCc1ccccc1 (stereo not shown) [UAWJ247],1 (Compounds with IC50 < 10 µM or with a percentage of enzyme inhibition >50% at 10 µM were labelled as ACTIVE)
17,CC(C)CC(NC(=O)OCc1ccccc1)C(=O)NC(CC(C)C)C(=O)NC(CC1CCNC1=O)C(=O)C(=O)NC1CC1 (stereo not shown) [UAWJ248],1 (Compounds with IC50 < 10 µM or with a percentage of enzyme inhibition >50% at 10 µM were labelled as ACTIVE)
18,CCCC(NC(=O)C(CC(C)C)NC(=O)OCc1ccccc1)C(=O)C(=O)NCc1ccccc1 (stereo not shown) [UAWJ257],"0 (compounds with IC50 > 20 μM, percentage inhibition <80% at 20 µM or 50 μM, or percentage enzyme inhibition <50% at 10 µM were labelled as INACTIVE)"
